Data reported in ChEMBL document CHEMBL2062485, “Structural characterization and antimicrobial evaluation of atractyloside, atractyligenin, and 15-didehydroatractyligenin methyl ester” (2012).

Legend:
Format in all cases: functional
[1] = tested on: Staphylococcus aureus; experiment: Antibacterial activity against epidemic methicillin-resistant Staphylococcus aureus isolate 15 by MTT assay
[2] = tested on: Staphylococcus aureus; experiment: Antibacterial activity against Staphylococcus aureus […] by MTT assay
[3] = tested on: Staphylococcus aureus; experiment: Antibacterial activity against epidemic methicillin-resistant Staphylococcus aureus isolate 16 by MTT assay
[4] = tested on: Staphylococcus aureus; experiment: Antibacterial activity against floroquinilone-resistant Staphylococcus aureus SA1199B by MTT assay

Measured: MIC

C=C1C(=O)[C@@]23CC[C@@H]4[C@H](C(=O)OC)C[C@@H](O)C[C@@]4(C)[C@@H]2CC[C@H]1C3
128 µg/mL: [1] | [2] | [3] | [4]
